We go through 1 substance from US20190358264A1, “METHODS OF TREATING DISEASES ASSOCIATED WITH ILC2 CELLS” (Limm Therapeutics, SA, priority 2016, published 2019).

The test concerns intestine and lung-derived ILC2s. Nature of the test: In vitro activation of purified ILC2s with NmU23, type 2 cytokine mRNA by quantitative RT-PCR. In kind it is cell-based, mouse. The method, then:
For in vitro experiments, purified lung and small intestine lamina propria ILC2s were FBS starved for 2 hours prior to stimulation and cultured in complete RPMI (supplemented with 10% foetal bovine serum (FBS), 1% hepes, sodium pyruvate, glutamine, streptomycin and penicillin) at 37° C. For mRNA analysis, ILC2s were stimulated overnight with recombinant mouse Neuromedin U 23 peptide (NmU23, 100 ng/mL; Phoenix pharmaceuticals). Both NmU23-stimulated and control ILC2s were cultured in the presence of IL-2 and IL-7 (10 ng/mL; Peprotech). ILC2s were lysed using RLT buffer (Qiagen). For cytokine protein analysis, ILC2s were incubated exclusively with brefeldin A (eBioscience) for 12 hours prior to intracellular staining. For in vivo experiments, B6 mice were injected intraperitoneal with NmU23 peptide (2 g/day) during Nippostrongylus brasiliensis infection or with a single dose of NmU23 (20 μg) and analyzed after 8 hours. Control mice were treated with PBS alone. Total RNA was extracted using RNeasy micro kit (Qiagen) according to the manufacturer's protocol. RNA concentration was determined using Nanodrop Spectrophotometer (Nanodrop Technologies). Quantitative real-time RT-PCR was performed as previously described^5,8. Hprt1, Gapdh and Eef1a1 were used as housekeeping genes. For TaqMan assays (Applied Biosystems) RNA was retro-transcribed using a High Capacity RNA-to-cDNA Kit (Applied Biosystems), followed by a pre-amplification PCR using TaqMan PreAmp Master Mix (Applied Biosystems). TaqMan Gene Expression Master Mix (Applied Biosystems) was used in real-time PCR. TaqMan Gene Expression Assays (Applied Biosystems) were the following: Hprt1 Mm00446968_m1; Gapdh Mm99999915_g 1; Eef1a1 Mm01973893_g 1; Il5 Mm00439646_m1; Il13 Mm00434204_m1; Areg Mm01354339_m1; 114 Mm00445259_m1; Csf2 Mm01290062_m1; Gata3 Mm00484683_m1; Rora Mm01173766_m1; Nmu Mm00479868_m1; Nmur1 Mm04207994_m1. Real-time PCR analysis was performed using StepOne Real-Time PCR system (Applied Biosystems).

For “recombinant mouse Neuromedin U 23 peptide (FKAEYQSPSVGQSKGYFLFRPRN; listed as Mus musculus) [NmU23, NMUR1 agonist neuropeptide, Phoenix pharmaceuticals]”, the “innate Il5 and Il13 gene expression in intestinal ILC2” value (NmU23 100 ng/mL in vitro (FIG. 9f)) was “immediate innate Il5 and Il13 upregulation”. Under “NmU23 100 ng/mL overnight, with IL-2 and IL-7, intestine and lung ILC2s”, the “expression of type 2 cytokines genes Il5, Il13, Areg and Csf2 in ILC2s” value is “prompt and very potent expression”. Under “NmU23 100 ng/mL overnight, intestine and lung ILC2s”, the “expression of the master type 2 transcription factor Gata3 in ILC2s” value is recorded as “increased expression”.
